For one data set, the target named is CYP3A4 (Homo sapiens (Human), UniProt P08684). Description: CYP inhibition test, CYP3A4. Type of data set: in vitro ADME. Particulars: pooled human liver microsomes; terfenadine hydroxylation; given as 'five kinds'. The source says: (§1) Using commercially available pooled human hepatic microsome, and employing, as markers, 7-ethoxyresorufin O-deethylation (CYP1A2), tolbutamide methyl-hydroxylation (CYP2C9), mephenytoin 4'-hydroxylation (CYP2C19), dextromethorphan 0-demethylation (CYP2D6), and terfenadine hydroxylation (CYP3A4) as typical substrate metabolism reactions of human main five CYP enzyme forms (CYP1A2, 2C9, 2C19, 2D6, 3A4), an inhibitory degree of each metabolite production amount by the compound of the present invention was assessed. The reaction conditions are as follows: substrate, 0.5 μmol/L ethoxyresorufin (CYP1A2), 100 μmol/L tolbutamide (CYP2C9), 50 μmol/L S-mephenitoin (CYP2C19), 5 μmol/L dextromethorphan (CYP2D6), 1 μmol/L terfenedine (CYP3A4); reaction time, 15 minutes; reaction temperature, 37° C.; enzyme, pooled human liver microsomes 0.2 mg protein/mL; concentrations of the compound of the present invention, 1, 5, 10, 20 μmol/L (four points). As a reaction solution, each five kinds of substrates, human liver microsomes, or compound of the present invention in 50 mmol/L Hepes buffer were added to a 96-well plate at the composition as described above, and NADPH, as a cofactor was added to initiate metabolism reactions. After the incubation at 37° C. for 15 minutes, a methanol/acetonitrile=1/[…]) solution was added to stop the reaction. After the centrifugation at 3000 rpm for 15 minutes, resorufin (CYP1A2 metabolite) in the supernatant was quantified by a fluorescent multilabel counter or LC/MS/MS, and tolbutamide hydroxide (CYP2C9 metabolite), mephenytoin 4' hydroxide (CYP2C19 metabolite), dextrorphan (CYP2D6 metabolite), and terfenadine alcohol (CYP3A4 metabolite) were quantified by LC/MS/MS. Addition of only DMSO being a solvent dissolving a drug to a reaction system was adopted as a control (100%). Remaining activity (%) was calculated. IC50 was calculated by reverse presumption by a logistic model using the concentration and an inhibition rate.
Chain of CYP3A4 (P08684 whole entry): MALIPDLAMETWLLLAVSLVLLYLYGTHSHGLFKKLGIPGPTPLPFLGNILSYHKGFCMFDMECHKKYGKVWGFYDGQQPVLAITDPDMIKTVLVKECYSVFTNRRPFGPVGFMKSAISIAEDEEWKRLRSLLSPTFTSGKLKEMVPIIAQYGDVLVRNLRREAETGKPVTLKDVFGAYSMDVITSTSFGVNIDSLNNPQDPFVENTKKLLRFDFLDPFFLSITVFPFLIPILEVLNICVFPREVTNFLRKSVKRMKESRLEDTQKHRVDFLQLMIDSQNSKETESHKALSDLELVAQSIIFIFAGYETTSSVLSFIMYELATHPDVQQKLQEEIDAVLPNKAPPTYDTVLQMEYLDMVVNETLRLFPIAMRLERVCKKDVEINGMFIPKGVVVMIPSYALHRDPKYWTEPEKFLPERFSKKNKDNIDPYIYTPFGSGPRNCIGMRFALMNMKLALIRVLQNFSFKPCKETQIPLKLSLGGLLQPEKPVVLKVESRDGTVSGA

The nature of data set [1]: Solubility test (1% DMSO addition, pH 6.8 artificial intestinal juice). Type of data set: physicochemical. Particulars: kinetic from dmso stock, 16 hours at 25° C. The procedure:
The solubility of the compound of the present invention was determined under 1% DMSO addition conditions. 10 mmol/L solution of the compound was prepared with DMSO, and 6 μL of the solution of the compound of the present invention was added to 594 μL of pH 6.8 artificial intestinal juice (118 mL of 0.2 mol/L NaOH test solution and water were added to 250 mL of 0.2 mol/L potassium dihydrogen phosphate test solution to reach 1000 mL). The mixture was left standing for 16 hours at 25° C., and the mixture was vacuum-filtered. The filtrate was two-fold diluted with methanol/water=1/1 (V/V), and the compound concentration in the filtrate was measured with HPLC or LC/MS/MS by the absolute calibration method. The dilution concentration and the dilution solvent were changed as necessary.

The nature of data set [2]: Metabolism stability test (human liver microsomes). Type of data set: in vitro ADME. Particulars: compound concentration 0.5 μmol/L, 37° C., 30 minutes, NADPH. (In general: Microsomes from liver hold many membrane-bound enzymes, among them those of drug oxidation.)
For another data set, the target named is CYP1A2 (Homo sapiens (Human), UniProt P05177). Description: CYP inhibition test, CYP1A2. Type of data set: in vitro ADME. As to conditions: pooled human liver microsomes; 7-ethoxyresorufin O-deethylation; given as 'five kinds'.
Chain of CYP1A2 (P05177 whole entry): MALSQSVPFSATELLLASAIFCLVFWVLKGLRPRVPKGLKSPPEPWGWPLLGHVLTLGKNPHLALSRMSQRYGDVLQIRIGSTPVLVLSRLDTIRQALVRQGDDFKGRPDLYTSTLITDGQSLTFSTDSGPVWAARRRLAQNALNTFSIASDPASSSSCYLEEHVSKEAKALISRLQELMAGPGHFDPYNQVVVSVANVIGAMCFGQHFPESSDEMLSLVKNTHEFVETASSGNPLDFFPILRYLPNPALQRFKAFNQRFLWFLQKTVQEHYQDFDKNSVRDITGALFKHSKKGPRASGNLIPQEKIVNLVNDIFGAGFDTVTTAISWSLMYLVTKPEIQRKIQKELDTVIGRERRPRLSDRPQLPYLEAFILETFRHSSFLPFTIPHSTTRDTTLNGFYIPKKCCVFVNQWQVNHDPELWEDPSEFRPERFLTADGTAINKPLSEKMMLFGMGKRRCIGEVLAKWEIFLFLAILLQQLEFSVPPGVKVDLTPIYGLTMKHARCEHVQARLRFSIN
Text: as §1

Another data set has as its target CYP2D6 (Homo sapiens (Human), UniProt P10635). Briefly: CYP inhibition test, CYP2D6. Type of data set: in vitro ADME. As to conditions: pooled human liver microsomes; dextromethorphan O-demethylation; given as 'five kinds'.
Text: as §1

The target of the next data set is CYP2C9 (Homo sapiens (Human), UniProt P11712). Briefly: CYP inhibition test, CYP2C9. Type of data set: in vitro ADME. As to conditions: pooled human liver microsomes; tolbutamide methyl-hydroxylation; given as 'five kinds'.
Chain of CYP2C9 (P11712 whole entry): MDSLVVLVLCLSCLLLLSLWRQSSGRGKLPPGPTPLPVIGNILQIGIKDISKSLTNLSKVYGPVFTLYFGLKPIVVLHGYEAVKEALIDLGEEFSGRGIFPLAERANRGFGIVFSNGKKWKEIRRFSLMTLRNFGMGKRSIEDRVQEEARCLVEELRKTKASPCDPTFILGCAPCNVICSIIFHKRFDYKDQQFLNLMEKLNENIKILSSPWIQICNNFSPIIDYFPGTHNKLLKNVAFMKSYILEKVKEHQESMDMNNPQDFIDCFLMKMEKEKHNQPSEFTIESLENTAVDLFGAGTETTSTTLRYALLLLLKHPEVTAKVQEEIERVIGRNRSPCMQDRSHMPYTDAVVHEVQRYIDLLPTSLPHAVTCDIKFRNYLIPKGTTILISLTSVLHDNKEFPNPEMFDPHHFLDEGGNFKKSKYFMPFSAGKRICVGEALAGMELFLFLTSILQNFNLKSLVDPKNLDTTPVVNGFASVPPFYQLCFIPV
Text: as §1

A further data set deals with CYP2C19 (Homo sapiens (Human), UniProt P33261). Briefly: CYP inhibition test, CYP2C19. Type of data set: in vitro ADME. Particulars: pooled human liver microsomes; mephenytoin 4′-hydroxylation; given as 'five kinds'.
Chain of CYP2C19 (P33261 whole entry): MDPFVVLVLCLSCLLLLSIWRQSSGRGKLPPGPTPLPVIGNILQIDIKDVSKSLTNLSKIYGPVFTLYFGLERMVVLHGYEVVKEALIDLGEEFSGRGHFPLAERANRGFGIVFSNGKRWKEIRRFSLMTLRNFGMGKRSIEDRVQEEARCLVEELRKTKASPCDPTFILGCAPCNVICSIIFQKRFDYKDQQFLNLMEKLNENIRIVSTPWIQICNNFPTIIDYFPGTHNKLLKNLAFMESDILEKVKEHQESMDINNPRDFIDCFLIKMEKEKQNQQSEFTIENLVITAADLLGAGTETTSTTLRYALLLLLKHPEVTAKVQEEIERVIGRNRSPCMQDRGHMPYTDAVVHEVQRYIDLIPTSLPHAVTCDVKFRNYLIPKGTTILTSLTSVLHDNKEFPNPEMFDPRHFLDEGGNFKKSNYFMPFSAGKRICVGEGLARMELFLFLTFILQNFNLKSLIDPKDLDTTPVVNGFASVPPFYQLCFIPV
Text: as §1

Data set [3] can be described thus: BA test (oral absorption). Type of data set: in vivo. As to conditions: plasma; mice or SD rats; from AUCs of oral and intravenous administration. As to the method: Materials and methods for experiments to evaluate oral absorption
(1) Animals: the mice or SD rats were used.
(2) Breeding conditions: the mice or SD rats were allowed to freely take solid food and sterilized tap water.
(3) Setting of dosage and grouping: Oral administration and intravenous administration were performed with a predetermined dosage. Grouping was set as below. (dosage changed per compound)
Oral administration: 1 to 30 mg/kg (n=2 to 3)
Intravenous administration: 0.5 to 10 mg/kg (n=2 to 3)
(4) Preparation of administration solution: Oral administration was performed in the form of a suspension or a solution. Intravenous administration was performed after solubilization.
(5) Routes of administration: Oral administration was performed mandatory into the stomach by oral sonde. Intravenous administration was performed from caudal vein or femoral vein by syringes with needle.
(6) Evaluation items: blood was collected over time, and the plasma concentration of the compound of the present invention was measured by LC/MS/MS.
(7) Statistical analysis: regarding the transition of the plasma concentration of the compound of the present invention, the area under the plasma concentration-time curve (AUC) was calculated by non-linear least squares program WinNonlin (registered trademark), and the bioavailability (BA) of the compound of the present invention was calculated from the AUCs of the oral administration group and intravenous administration group.

≈ marks a conversion by molar mass, not a printed value.

Chain of CYP2D6 (P10635 whole entry): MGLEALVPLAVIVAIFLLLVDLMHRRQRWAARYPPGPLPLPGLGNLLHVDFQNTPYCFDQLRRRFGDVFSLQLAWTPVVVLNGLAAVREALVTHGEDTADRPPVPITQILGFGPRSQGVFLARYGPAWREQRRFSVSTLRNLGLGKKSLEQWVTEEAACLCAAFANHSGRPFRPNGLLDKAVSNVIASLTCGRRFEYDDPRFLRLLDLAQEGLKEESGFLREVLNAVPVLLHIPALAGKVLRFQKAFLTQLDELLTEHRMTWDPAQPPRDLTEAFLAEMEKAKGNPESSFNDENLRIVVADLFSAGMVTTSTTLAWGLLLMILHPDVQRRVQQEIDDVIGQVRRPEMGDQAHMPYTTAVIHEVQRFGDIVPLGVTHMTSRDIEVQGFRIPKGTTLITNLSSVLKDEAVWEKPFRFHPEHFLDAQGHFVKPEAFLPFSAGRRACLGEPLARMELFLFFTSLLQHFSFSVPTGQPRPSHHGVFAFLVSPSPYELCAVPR

With `N#Cc1ccc(-c2nn3c(c2NC(=O)CC(F)(F)F)C(=O)N[C@@]2(CCc4cc(OCC(F)(F)F)ccc42)C3)nc1` [Compound I-14], the IC50 at CYP3A4, on CYP1A2, at CYP2D6, on CYP2C9 and at CYP2C19 was greater than 20 µM throughout. In data set [1], the solubility at 16 h was 41.8 µM (≈ 23.6 µg/mL). The Remaining rate in data set [2] was determined as 103%.
With `Cc1ccc(-c2nn3c(c2NC(=O)CS(C)(=O)=O)C(=O)N[C@@]2(CCc4cc(OCC(F)(F)F)ccc42)C3)nc1` [Compound I-6], the half-maximal inhibitory concentration (IC50) at CYP3A4, against CYP1A2, at CYP2D6, against CYP2C9 and against CYP2C19 was greater than 20 µM each time. In addition, the solubility at 16 h in data set [1] was greater than 50 µM. In data set [2], this molecule showed a Remaining rate of 92.4%. Further, in data set [3], the bioavailability came out at 55.1%.
On to `Cc1ccc(-c2nn3c(c2NC(=O)CS(C)(=O)=O)C(=O)N[C@@]2(CCc4cc(OCC(F)(F)F)ccc42)C3)cc1` [Compound I-20], for which the IC50 on CYP3A4, against CYP1A2, at CYP2D6, against CYP2C9 and at CYP2C19 was greater than 20 µM each time. In data set [2], this molecule displayed a Remaining rate of 74.5%. Further, the bioavailability in data set [3] worked out at 63.4%.
Regarding `CS(=O)(=O)CC(=O)Nc1c(CCC2CC2)nn2c1C(=O)N[C@@]1(CCc3cc(OCC(F)(F)F)ccc31)C2` [Compound I-46], the IC50 at CYP3A4, at CYP1A2, against CYP2D6, at CYP2C9 and against CYP2C19 was greater than 20 µM throughout. For the same molecule, the solubility at 16 h in data set [1] was greater than 50 µM. In data set [2], this molecule registered a Remaining rate of 78.1%. The bioavailability in data set [3] is 53.1%.
For the molecule `CS(=O)(=O)CC(=O)Nc1c(CCC(F)(F)F)nn2c1C(=O)N[C@@]1(CCc3cc(OCC(F)(F)F)ccc31)C2` [Compound I-58], the IC50 on CYP3A4, on CYP1A2, against CYP2D6, at CYP2C9 and against CYP2C19 was greater than 20 µM each time. In data set [1], this molecule gave a solubility at 16 h greater than 50 µM. The same molecule had a Remaining rate in data set [2] of 88.4%. The molecule also came in with a bioavailability in data set [3] of 88.2%.

In general, IC50 refers to the concentration that inhibits the measured activity by half. High values mean weaker potency, low ones greater potency. Broadly, the solubility is the concentration that dissolves in the medium under given conditions. A low value points to a poorly soluble substance. A word on the bioavailability: it is the share of a dose that reaches the circulation, judged against a reference dose that is usually intravenous. Lower therefore signals poor availability.

The values above are taken from patent publication US12227509B2, “Dihydropyrazolopyrazinone derivative having MGAT2 inhibitory activity” (Shionogi & Co., Ltd., priority 2019, dated 2025).
